# Legend:
# RPMI-8226 = experiment: Growth inhibition of human RPMI-8226 cells; type: functional
# CCRF-CEM = experiment: Growth inhibition of human CCRF-CEM cells; type: functional
# Escherichia coli [1] = experiment: Antibacterial activity against Escherichia coli assessed as reduction in bacterial growth by broth microdilution method; type: functional
# Acinetobacter baumannii = experiment: Antibacterial activity against Acinetobacter baumannii assessed as reduction in bacterial growth by broth microdilution method; type: functional
# Staphylococcus aureus [2] = experiment: Antibacterial activity against Staphylococcus aureus ATCC 29213 assessed as reduction in microbial growth; type: functional
# Enterococcus faecalis = experiment: Antibacterial activity against Enterococcus faecalis assessed as reduction in bacterial growth; type: functional
# Staphylococcus aureus [3] = experiment: Antibacterial activity against Staphylococcus aureus […] assessed as reduction in microbial growth; type: functional
# Staphylococcus aureus [4] = experiment: Antibacterial activity against methicillin-resistant Staphylococcus aureus assessed as reduction in microbial growth; type: functional
# HeLa [5] = experiment: Antiproliferative activity against human HeLa cells assessed as reduction in cell growth; type: functional, cell-based
# MCF7 [6] = experiment: Antiproliferative activity against human MCF7 cells assessed as reduction in cell viability incubated for 120 hrs by MTT assay; type: functional, cell-based; details: MCF7, 120 h
# [7] = Antioxidant activity assessed as DPPH radical scavenging activity measured after 30 mins; type: functional
# Alpha glucosidase = Alpha glucosidase (Homo sapiens, UniProt O43451+P10253+P14410+Q2M2H8); experiment: Inhibition of alpha glucosidase (unknown origin) measured after 60 mins; type: protein assay
# [8] = Antioxidant activity assessed as DPPH radical scavenging activity; type: functional
# [9] = test system: Human immunodeficiency virus 1; experiment: Antiviral activity against HIV-1 harboring integrase L74M mutant; type: functional, organism-based
# Bel-7402 = experiment: Cytotoxicity against human Bel-7402 cells assessed as reduction in cell viability measured after 72 hrs by MTT assay; type: functional, cell-based; details: Bel-7402, 72 h
# H4 = experiment: Antiproliferative activity against human H4 cells assessed as cell growth inhibition; type: functional, cell-based
# HeLa [10] = experiment: Antiproliferative activity against human HeLa cells assessed as inhibition of cell growth incubated for 72 hrs by MTT assay; type: functional, cell-based
# MCF7 [11] = experiment: Antiproliferative activity against human MCF7 cells assessed as inhibition of cell growth after overnight incubation by MTT assay; type: functional, cell-based
# HT-29 = experiment: Antiproliferative activity against human HT-29 cells assessed as inhibition of cell proliferation by MTT assay; type: functional, cell-based
# HeLa [12] = experiment: Cytotoxicity against human HeLa cells assessed as reduction in cell viability; type: functional, cell-based
# MCF7 [13] = experiment: Cytotoxicity against human MCF7 cells assessed as reduction in cell viability after 48 hrs by SRB assay; type: functional, cell-based; details: MCF7, 48 h
# A549 [14] = experiment: Antiproliferative activity against human A549 cells assessed as reduction in cell viability by MTT assay; type: functional, cell-based
# MDA-MB-453 = experiment: Antiproliferative activity against human MDA-MB-453 cells assessed as reduction in cell growth after 72 hrs by MTT assay; type: functional, cell-based; details: MDA-MB-453, 72 h
# CAMA-1 = experiment: Antiproliferative activity against human CAMA-1 cells assessed as cell growth inhibition; type: functional, cell-based
# Staphylococcus aureus [15] = experiment: Antibacterial activity against Staphylococcus aureus assessed as reduction in microbial growth; type: functional
# Aspergillus niger = experiment: […] against Aspergillus niger assessed as […] incubated for 24 hrs by agar disc diffusion assay; type: functional
# Candida albicans = experiment: Antibacterial activity against Candida albicans assessed as reduction in bacterial growth; type: functional
# Fusarium oxysporum = experiment: Antifungal activity against Fusarium oxysporum assessed as inhibition of fungal growth; type: functional
# Klebsiella pneumoniae = experiment: Antibacterial activity against Klebsiella pneumoniae assessed as reduction in bacterial growth by broth microdilution method; type: functional
# Escherichia coli [16] = experiment: Antibacterial activity against Escherichia coli assessed as reduction in bacterial cell viability; type: functional
# Bacillus subtilis = experiment: Antibacterial activity against Bacillus subtilis assessed as reduction in microbial growth; type: functional
# A549 [17] = experiment: Antiproliferative activity against human A549 cells assessed as reduction in cell viability incubated for 48 hrs by MTT assay; type: functional, cell-based; details: A549, 48 h
compound,measurement,setting,value
C=C1C(=O)O[C@H]2[C@H]1CC1C(COC(=O)c3c[nH]c4ccccc34)=CCC[C@@]3(C)O[C@@]123 (some centres undefined),GI50,RPMI-8226,40 nM
same,GI50,CCRF-CEM,50 nM
CCn1cc(C(=O)O)c(=O)c2cc(F)c(N3CCNCC3)cc21 [NORFLOXACIN],MIC,Escherichia coli [1],2 µg/mL
same,MIC,Acinetobacter baumannii,2 µg/mL
same,MIC,Staphylococcus aureus [2],2 µg/mL
same,MIC,Enterococcus faecalis,4 µg/mL
same,MIC,Staphylococcus aureus [3],4 µg/mL
same,MIC,Staphylococcus aureus [4],4 µg/mL
COc1cc([C@@H]2c3cc4c(cc3[C@H](OC(=O)c3c[nH]c5ccccc35)[C@H]3COC(=O)[C@H]23)OCO4)cc(OC)c1OC,IC50,HeLa [5],2200 nM
COc1ccc2[nH]cc(C(=O)C(=O)N[C@H]3c4cc5c(cc4[C@@H](c4cc(OC)c(OC)c(OC)c4)[C@H]4C(=O)OC[C@@H]43)OCO5)c2c1,IC50,MCF7 [6],1960 nM
same,IC50,HeLa [5],1960 nM
O=C1O[C@H]([C@@H](O)CO)C(O)=C1O [ASCORBIC ACID],EC50,[7],23 µM
COc1ccc2c(/C=N/[C@H]3c4cc5c(cc4[C@@H](c4cc(OC)c(OC)c(OC)c4)[C@H]4C(=O)OC[C@@H]43)OCO5)cn(Cc3ccccc3F)c2c1,IC50,HeLa [5],790 nM
C=C(C)[C@@H]1CC[C@]2(C(=O)NCC(=O)O)CC[C@]3(C)[C@H](CC[C@@H]4[C@@]5(C)Cc6c([nH]c7ccccc67)C(C)(C)[C@@H]5CC[C@]43C)[C@@H]12,IC50,Alpha glucosidase,1.8 µM
O=C1O[C@H]([C@@H](O)CO)C([O-])=C1O.[Na+] [SODIUM ASCORBATE],IC50,[8],12.8 µM
C=C(C)[C@@H]1CC[C@]2(C(=O)N3CCN(C(=O)/C=C/c4ccc5[nH]ccc5c4)CC3)CC[C@]3(C)[C@H](CC[C@@H]4[C@@]5(C)CC[C@H](OC(=O)CC(C)(C)C(=O)O)C(C)(C)[C@@H]5CC[C@]43C)[C@@H]12,IC50,[9],50 nM
CC1=C(O)C(=O)C=C2C1=CC=C1[C@@]2(C)CC[C@@]2(C)[C@@H]3C[C@](C)(C(=O)O)CC[C@]3(C)CC[C@]12C [CELASTROL],IC50,Bel-7402,1550 nM
same,IC50,H4,2090 nM
CCOC(=O)c1[nH]c2cc(OC)ccc2c1/C=C/C(=O)c1cc(OC)c(OC)c(OC)c1,IC50,HeLa [10],840 nM
same,IC50,MCF7 [11],240 nM
same,IC50,HT-29,130 nM
COc1ccc(/C=C\c2cc(OC)c(OC)c(OC)c2)cc1OC(=O)c1cccc(-n2cc(CCOC(=O)[C@H](N)Cc3cn(C)c4ccccc34)nn2)c1,IC50,HeLa [12],70 nM
O=C(/C=C/c1ccc(O)c(O)c1)Nc1ccc2[nH]ccc2c1,EC50,[7],51 µM
Cc1cc(=O)oc2cc(/N=C3/S/C(=C\c4c[nH]c5ccccc45)C(=O)N3CCO)ccc12,MIC,Escherichia coli [1],0.25 µg/mL
same,MIC,Acinetobacter baumannii,0.25 µg/mL
same,MIC,Staphylococcus aureus [2],0.25 µg/mL
same,MIC,Enterococcus faecalis,0.25 µg/mL
same,MIC,Staphylococcus aureus [3],0.25 µg/mL
same,MIC,Staphylococcus aureus [4],0.25 µg/mL
CCOC(=O)c1[nH]c2ccc(OC)cc2c1/C=C/C(=O)c1cc(OC)c(OC)c(OC)c1,IC50,HeLa [10],330 nM
same,IC50,MCF7 [11],460 nM
same,IC50,HT-29,390 nM
C[C@@H]1CC[C@H]2[C@@H](C)C(OC(=O)c3cc4ccccc4[nH]3)O[C@@H]3O[C@@]4(C)CC[C@@H]1[C@]32OO4 (some centres undefined),IC50,MCF7 [13],6.78 µM
same,IC50,A549 [14],12.9 µM
COC(=O)c1[nH]c2ccc(OC)cc2c1/C=C/C(=O)c1cc(OC)c(OC)c(OC)c1,IC50,HeLa [10],2400 nM
same,IC50,MCF7 [11],590 nM
same,IC50,HT-29,1000 nM
COc1ccc2[nH]c(C(=O)OC3O[C@@H]4O[C@@]5(C)CC[C@H]6[C@H](C)CC[C@@H]([C@H]3C)[C@@]46OO5)cc2c1 (some centres undefined),IC50,MCF7 [13],14.5 µM
same,IC50,A549 [14],13.4 µM
CC1(C)CCC(C)(C)c2cc(C(=O)/C=C/c3c[nH]c4ccccc34)ccc21,IC50,MDA-MB-453,< 10 nM
same,IC50,CAMA-1,< 10 nM
GENTAMICIN,MIC,Staphylococcus aureus [15],26 µg/mL
same,MIC,Aspergillus niger,27 µg/mL
same,MIC,Candida albicans,28 µg/mL
same,MIC,Fusarium oxysporum,27 µg/mL
same,MIC,Klebsiella pneumoniae,26 µg/mL
same,MIC,Escherichia coli [16],26 µg/mL
same,MIC,Bacillus subtilis,28 µg/mL
COc1ccc(OC)c(-c2nc(C(=O)N[C@H]3c4cc5c(cc4[C@@H](c4cc(OC)c(OC)c(OC)c4)[C@H]4C(=O)OC[C@@H]43)OCO5)cc3c2[nH]c2ccccc23)c1,IC50,A549 [17],1870 nM

# — ChEMBL document CHEMBL5356986, “Research status of indole-modified natural products” (RSC Med Chem, 2023)
